Measured values as given in patent US8575340B2, “Purine derivatives and their pharmaceutical uses” (GlaxoSmithKline LLC, priority 2010, dated 2013).

Tests used:
Format in all cases: cell-based
Interferon-α = test: Induction of Interferon-α using cryopreserved human PBMCs; conditions: PBMC, 24 hours incubation, normalised to 1 μM resiquimod and DMSO, read-out: mean pEC50 for induction of Interferon-α (converted)
Protocol: Assay for the Induction of Interferon-α using Cryopreserved Human Peripheral Blood Mononuclear Cells (PBMCs)
Compounds were dissolved in DMSO. Serial 2-fold dilutions with DMSO were prepared and 0.25 μL dispensed into 384-well clear Greiner polypropylene plates.
Blood samples of up to 200 mL were obtained from healthy human donors. Whole blood in 25 mL volumes was overlaid onto 15 mL Ficoll gradients in Leucosep tubes, and centrifuged at 1000 g for 20 minutes. Cells in the band at the plasma/histopaque interface were carefully removed and washed twice with PBS (centrifuged at 400 g for 5 min to harvest). The final pellet was resuspended in freezing medium (90% Heat-inactivated serum, 10% DMSO) to a cell concentration of 4×10^7 cells/mL. The resuspended cells were then cryopreserved (frozen) using a rate controlled freezer, and stored at −140° C. for up to 4 months.
Incubation and Assay for Interferon-α
Immediately prior to assay, vials of cryopreserved (frozen) PBMCs were thawed rapidly in a water bath at 37° C. A 1:10 dilution of the cells in trypan blue was prepared and counted. The PBMCs were then diluted in growth media [RPMI 1640 containing 10% fetal calf serum (invitrogen), Penicillin+[…] (Gibco cat. #25030-024, 1:50), L-Glutamine 2 mM, and 1000 units/mL recombinant human IFN-gamma (Preprotech catalogue #300-02)] to a density of 1×10^6 cells/mL, and 50 uL/well dispensed to 384-well clear Greiner polypropylene plates containing 0.25 μL DMSO or test compound in 0.25 μL DMSO. […] Plates were incubated for 24 hours at 37° C. in 5% CO2.
A multi-isoform immunoassay was used to quantify IFN-α in PBMC supernatants. Rabbit polyclonal antibody against human IFN-α (catalogue number 31101, Stratech Scientific) was diluted 1:10000 in assay buffer (RPMI 1640 containing 10% fetal calf serum, Invitrogen) and 20 μL was added to each well of an MSD (Meso-Scale Discovery) single small-spot 384-well GAR (goat anti-rabbit antibody coated) plate. The plate was incubated for 1 hour at room temperature with vigorous shaking. Following three washes with PBS, 20 μL of cell supernatant were added to each well of the plate. The plate was then incubated for 1 hour at room temperature with vigorous shaking. A pair of monoclonal antibodies to IFN-α (catalogue numbers 21100 and 21112, Stratech Scientific) were labelled with sulfo-TAG (MSD), diluted 1:1000 in assay buffer and 20 μL added to each well of the plate. The plate was further incubated for 1 hour at room temperature with vigorous shaking. Following three washes with PBS, 30 μL of ×2 T buffer (MSD) was added to each well and the plate was read on an MSD Sector 6000 plate reader.
Data were normalised to internal plate controls of 1 μM resiquimod (n=16) and DMSO (n=16). pEC50 values were derived by 4-parameter curve fit with IRLS in ActivityBase, from 11-point, two-fold serial dilution of test compounds.

IFN-α = test: Induction of Interferon-α using fresh human PBMCs; conditions: PBMC, two donors, 24 hours incubation, percentage of 2 μM resiquimod control, read-out: pEC50 for induction of IFN-α (converted)
Protocol: (§1) Assay for the Induction of Interferon-α and TNF-α using Fresh Human Peripheral Blood Mononuclear Cells (PBMCs)
(§2) Compounds were dissolved and serially diluted in DMSO to give 100× the required concentration range using a Biomek 2000. 1 μL of test compound was transferred into 96-well tissue culture plates using a Biomek FX. Each compound was assayed in duplicate for each donor. Each plate contained a dilution series of the TLR7/8 agonist resiquimod as standard and Column 11 contained 1 μL of 200 μM resiquimod (giving a 2 μM final concentration, used to define the approximate maximal response to resiquimod).
(§3) Blood samples from two human donors were collected into sodium heparin (10 U/mL). 25 mL volumes of whole blood were overlaid onto 15 mL Histopaque in Leucosep tubes which were centrifuged at 800 g for 20 min and the band at the plasma/histopaque interface carefully removed. The collected cells were centrifuged at 2500 rpm for 10 min and the pellet resuspended in 10 mL of media (RPMI 1640 (Low endotoxin) supplemented with 10% v/v foetal calf serum (FCS, low endotoxin) 100 U/mL penicillin G, 100 μg/mL streptomycin, 10 mM L-glutamine and 1× non-essential amino acids). A 1:20 dilution of the cells was prepared using trypan blue and the cells counted using a haemocytometer. The PBMCs were diluted to give a final concentration of 2×10^6/mL and 100 μL of this cells suspension was added to wells containing 1 μL of diluted test compound.
(§4) Incubation and Assays for Interferon-α and TNF-α
(§5) The cell preparations were incubated for 24 hours (37° C., 95% air, 5% CO2) after which a sample of the supernatant was removed using the Biomek FX and assayed for both IFN-α and TNF-α using the MSD (Mesoscale Discovery) electrochemiluminescence assay platform. The IFN-α assay was carried out similarly to that described above. […]
(§6) Cytokine released was expressed as a percentage of the 2 μM resiquimod control (column 11). This percentage was plotted against compound concentration and the pEC50 for the response determined by non-linear least squares curve fitting. […]

TNF-α = test: Induction of TNF-α using fresh human PBMCs; conditions: PBMC, two donors, 24 hours incubation, percentage of 2 μM resiquimod control, read-out: pEC50 for induction of TNF-α (converted)
Protocol: as §1, §2, §3, §4, §5, §6

For `CCCCOc1nc(N)c2[nH]c(=O)n(CCCC3CCN(CCO)CC3)c2n1` [Example 8, 6-Amino-2-(butyloxy)-9-{3-[1-(2-hydroxyethyl)-4-piperidinyl]propyl}-7,9-dihydro-8H-purin-8-one], the EC50 (Interferon-α) was less than 1.58 µM.
In the case of `CCCCOc1nc(N)c2[nH]c(=O)n(CCCN3CCN(CCO)CC3)c2n1` [Example 11, 6-Amino-2-(butyloxy)-9-{3-[4-(2-hydroxyethyl)-1-piperazinyl]propyl}-7,9-dihydro-8H-purin-8-one], the EC50 (Interferon-α) was less than 1.58 µM.
Compound `CCCCOc1nc(N)c2[nH]c(=O)n(CCC3CCN(CCO)CC3)c2n1` [Example 7, 6-Amino-2-(butyloxy)-9-{2-[1-(2-hydroxyethyl)-4-piperidinyl]ethyl}-7,9-dihydro-8H-purin-8-one] has an EC50 (Interferon-α) of less than 1.58 µM.
`CCCCNc1nc(N)c2[nH]c(=O)n(CCCCN3CCN(CCO)CC3)c2n1` [Example 14, 6-Amino-2-(butylamino)-9-{4-[4-(2-hydroxyethyl)-1-piperazinyl]butyl}-7,9-dihydro-8H-purin-8-one] gave an EC50 (Interferon-α) of less than 1.58 µM.
In the case of `CCCCOc1nc(N)c2[nH]c(=O)n(CCCCCC3CCN(CCO)CC3)c2n1` [Example 10, 6-Amino-2-(butyloxy)-9-{5-[1-(2-hydroxyethyl)-4-piperidinyl]pentyl}-7,9-dihydro-8H-purin-8-one], the EC50 (IFN-α) was 0.000501 µM, the EC50 (Interferon-α) was less than 1.58 µM and the EC50 (TNF-α) was 3.16 µM.
Work on `CCCCNc1nc(N)c2[nH]c(=O)n(CCCN3CCN(CCO)CC3)c2n1` [Example 12, 6-Amino-2-(butylamino)-9-[3-[4-(2-hydroxyethyl)-1-piperazinyl]propyl]-7,9-dihydro-8H-purin-8-one] yielded an EC50 (Interferon-α) of less than 1.58 µM.
Work on `CCCCOc1nc(N)c2[nH]c(=O)n(CCCCC3CCN(CCO)CC3)c2n1` [Example 9, 6-Amino-2-(butyloxy)-9-{4-[1-(2-hydroxyethyl)-4-piperidinyl]butyl}-7,9-dihydro-8H-purin-8-one] yielded an EC50 (Interferon-α) of less than 1.58 µM.
With `CCCCOc1nc(N)c2[nH]c(=O)n(CCCCCN3CCN(CCOC)CC3)c2n1` [Example 16, 6-Amino-2-(butyloxy)-9-(5-{4-[2-(methyloxy)ethyl]-1-piperazinyl}pentyl)-7,9-dihydro-8H-purin-8-one] the EC50 (Interferon-α) was less than 1.58 µM.
In the case of `CCCCOc1nc(N)c2[nH]c(=O)n(CCCCC3CCCN(CCO)C3)c2n1` (centres unmarked) [Example 5, 6-Amino-2-(butyloxy)-9-{4-[1-(2-hydroxyethyl)-3-piperidinyl]butyl}-7,9-dihydro-8H-purin-8-one], the EC50 (Interferon-α) was less than 1.58 µM.
Work on `CCCCOc1nc(N)c2[nH]c(=O)n(CCCC3CCCCN3CCO)c2n1` (centres unmarked) [Example 1, 6-Amino-2-(butyloxy)-9-[3-[1-(2-hydroxyethyl)-2-piperidinyl]propyl]-7,9-dihydro-8H-purin-8-one] yielded an EC50 (Interferon-α) of less than 1.58 µM.
In the case of `CCCCOc1nc(N)c2[nH]c(=O)n(CCCCCN3CCN(CCO)CC3)c2n1` [Example 15, 6-Amino-2-(butyloxy)-9-{5-[4-(2-hydroxyethyl)-1-piperazinyl]pentyl}-7,9-dihydro-8H-purin-8-one], the EC50 (Interferon-α) was less than 1.58 µM.
In the case of `CCCCOc1nc(N)c2[nH]c(=O)n(CCCCCN3CCN(CCOCC)CC3)c2n1` [Example 17, 6-Amino-2-(butyloxy)-9-(5-{4-[2-(ethyloxy)ethyl]-1-piperazinyl}pentyl)-7,9-dihydro-8H-purin-8-one], the EC50 (IFN-α) was 0.0158 µM, the EC50 (Interferon-α) was less than 1.58 µM and the EC50 (TNF-α) was 5.01 µM.
With `CCCCOc1nc(N)c2[nH]c(=O)n(CCC3CCCN(CCO)C3)c2n1` (centres unmarked) [Example 3, 6-Amino-2-(butyloxy)-9-{2-[1-(2-hydroxyethyl)-3-piperidinyl]ethyl}-7,9-dihydro-8H-purin-8-one] the EC50 (Interferon-α) was less than 1.58 µM.
For `CCCCOc1nc(N)c2[nH]c(=O)n(CC3CCCN(CCO)C3)c2n1` (centres unmarked) [Example 2, 6-Amino-2-(butyloxy)-9-{[1-(2-hydroxyethyl)-3-piperidinyl]methyl}-7,9-dihydro-8H-purin-8-one], the EC50 (IFN-α) was 0.0631 µM, the EC50 (Interferon-α) was less than 1.58 µM and the EC50 (TNF-α) was 15.8 µM.
`CCCCOc1nc(N)c2[nH]c(=O)n(CCCC3CCCN(CCO)C3)c2n1` (centres unmarked) [Example 4, 6-Amino-2-(butyloxy)-9-{3-[1-(2-hydroxyethyl)-3-piperidinyl]propyl}-7,9-dihydro-8H-purin-8-one] showed an EC50 (Interferon-α) of less than 1.58 µM.
In the case of `CCCCOc1nc(N)c2[nH]c(=O)n(CCCCN3CCN(CCO)CC3)c2n1` [Example 13, 6-Amino-2-(butyloxy)-9-{4-[4-(2-hydroxyethyl)-1-piperazinyl]butyl}-7,9-dihydro-8H-purin-8-one], the EC50 (Interferon-α) was less than 1.58 µM.
Work on `CCCCOc1nc(N)c2[nH]c(=O)n(CC3CCN(CCO)CC3)c2n1` [Example 6, 6-Amino-2-(butyloxy)-9-{[1-(2-hydroxyethyl)-4-piperidinyl]methyl}-7,9-dihydro-8H-purin-8-one] yielded an EC50 (Interferon-α) of less than 1.58 µM.
